Results reported in patent US7981873B1, “Use within transplantation surgery” (Corline Systems AB, priority 2000, dated 2011).

How the values were obtained:
Assay type in all cases: cell-based
[1] = system: adult porcine islets in fresh human blood; experiment: Tubing loop model: adult porcine islet perifusion with fresh human blood; set-up: FNIIa-AT / TAT: unit not given here; settings: for Platelets: blood supplemented with additive, Mean SE(M); for TAT: thrombin-antithrombin
Procedure: (§1) All the in vitro experiments for studies of islets contacting whole blood were performed in a tubing loop model. The experimental model is a modification of a model for testing biomaterials that has previously been described (J. Clin. Immunol. 16, 223-230 (1996)). Tubings made of polyvinylchloride (PVC, i.d.=6.3 mm, length=300 mm) were modified with immobilized heparin according to a method developed by Corline Systems AB (Uppsala, Sweden) as disclosed in international patent application no WO93/05793. Briefly, the polymer surface is modified with a high molecular weight amine compound to add primary amine groups to the surface. A soluble conjugate prepared by covalent binding of approximately 60 mol of heparin per mol of a straight-chained polyallylamine is irreversibly bonded onto the amine surface of the tubings. This procedure results in a total surface concentration of heparin of approximately 0.5 μg/cm^2. By using such heparin modified tubings it is possible to incubate the tubings with non-anticoagulated fresh human blood in a rocking device at 37° C. for one hour with only moderate activation of blood (c.f. control column in Table 1 A and 1 B below). Unmodified tubings will invariably induce complete clotting at these experimental conditions. Addition of human islets or porcine adult or fetal islets lead to some remarkable observations. Complete clotting invariably occurred with a total loss of platelets, a sharp increase in the formation of TAT and a very significant increase in the markers of the early contact phase (FXIIa and FXIa) of coagulation (C.f. Table 1 A and 1 B).
(§2) Sixty ml of non-anticoagulated blood was collected from healthy blood donors using heparin-coated equipment. U-shaped tubings with a total volume of nine ml were filled with eight ml of blood immediately followed by addition of isolated human islets or porcine adult or porcine fetal islets (500 IEQ). The tubings were then closed into loops using connectors of titanium furnished with immobilised heparin. The tubing loops were placed vertically in a rocking device and the complete apparatus was placed in an incubator at 37° C. for up to sixty minutes. At the end of the rocking period blood was collected in EDTA and the number of cells were counted in a automatic cell counter. The blood samples were then centrifuged at 4° C. (3290×g, 20 min) and EDTA plasma was collected and immediately put at −70° C. Islets retrieved after blood perifusion were prepared for immunohistochemistry.

[2] = system: human islets in ABO-compatible fresh human blood; experiment: Tubing loop model: human islet perifusion with ABO-compatible fresh human blood; set-up: TAT: unit not given here; settings: after 60 min human islet perifusion, Mean ± SE(M)
Procedure: as §1, §2

[3] = system: platelets in platelet rich plasma (PRP); experiment: Islet-induced platelet aggregation in platelet rich plasma (aggregometer); settings: agent added to PRP before islets
Procedure: Platelets in platelet rich plasma (PRP) and gel filtered platelets were tested in an aggregometer. Islets were added to PRP and thereafter analysed in the aggregometer. It was shown that the islets induced aggregation of the platelets (FIG. 1) and that platelets number in the sample were reduced from 375×10^9 to 236×10^9. If purified platelets without plasma proteins were used in combination with islets no aggregation and reduction in the platelet count were observed. In attempts to identify the mechanism behind the induced aggregation, an RGDS tetrapeptide to inhibit integrin binding and a monoclonal antibody against Fc receptors on platelets were used.

[4] = after 60 min adult porcine islet perifusion

Q: What does the source list for heparin?
A: C3a [1, 4]: 486 ± 139 ng/mL; C5b-9 [1, 4]: 82 ± 22 AU/mL; FXIa-AT [1, 4]: 0.53 ± 0.26 µM; Lymphcytes [1, 4]: 1.88 ± 0.11 ×10^9; Monocytes [1, 4]: 0.35 ± 0.05 ×10^9; Neutrophils [1, 4]: 3.00 ± 0.19 ×10^9; Platelets [1, 4]: 145 ± 13.0 ×10^9; clotting ([1]; in words, summary of Tables 1A and 1B): prevented clotting; platelet count and generation of TAT ([1]; in words, summary of Tables 1A and 1B, listed as Soluble heparin): remarkable improvement; platelet count and generation of TAT ([1]; in words, summary of Tables 1A and 1B, listed as soluble heparin): remarkable improvement in preservation of the number of platelets and reduced generation of TAT; TAT [1, 4]: 505 ± 162; Platelets ([2]; blood supplemented with additive): 114 ± 17 ×10^9; C3a [2]: 565 ± 143.6 ng/mL; C5b-9 [2]: 147 ± 39.6 AU/mL; FXIIa-AT [2]: 5.4e-06 ± 1.7e-06 M; FXIa-AT [2]: 3.4e-07 ± 1.2e-07 M; Lymph. [2]: 1.60 ± 0.20 ×10^9; Mono. [2]: 0.28 ± 0.06 ×10^9; Neutra. [2]: 2.56 ± 0.43 ×10^9; TAT ([2]; thrombin-antithrombin): 4467 ± 2285

Q: For RGDS [RGDS peptide], which “consumption of platelets when islets were added to PRP” value ([3]; FIG. 2) is on record?
A: totally abolished

Q: What about the “aggregation of platelets when islets were added to PRP” value ([3]; FIG. 2, FIG. 3) of the same molecule?
A: totally abolished

B1: C1-INA: the complement inhibitor C1 inactivator (C1-INA) (protein, UniProt P05155 23-500, looked up)
Plasma protease C1 inhibitor: NPNATSSSSQDPESLQDRGEGKVATTVISKMLFVEPILEVSSLPTTNSTTNSATKITANTTDEPTTQPTTEPTTQPTIQPTQPTTQLPTDSPTQPTTGSFCPGPVTLCSDLESHSTEAVLGDALVDFSLKLYHAFSAMKKVETNMAFSPFSIASLLTQVLLGAGENTKTNLESILSYPKDFTCVHQALKGFTTKGVTSVSQIFHSPDLAIRDTFVNASRTLYSSSPRVLSNNSDANLELINTWVAKNTNNKISRLLDSLPSDTRLVLLNAIYLSAKWKTTFDPKKTRMEPFHFKNSVIKVPMMNSKKYPVAHFIDQTLKAKVGQLQLSHNLSLVILVPQNLKHRLEDMEQALSPSVFKAIMEKLEMSKFQPTLLTLPRIKVTTSQDMLSIMEKLEFFDFSYDLNLCGLTEDPDLQVSAMQHQTVLELTETGVEAAAASAISVARTLLVFEVQQPFLFVLWDQQHKFPVFMGRVYDPRA
Q: Which C3a [1, 4] does the source give for B1 here?
A: 1094 ± 78 ng/mL

Q: And the C5b-9 [1, 4]?
A: 183 ± 29 AU/mL

Q: What about the FNIIa-AT [1, 4] of the same molecule?
A: 19.65 ± 0.45

Q: What about the FXIa-AT [1, 4] of the same molecule?
A: 2.95 ± 0.15

Q: And the Lymphcytes [1, 4]?
A: 1.23 ± 0.38 ×10^9

Q: What about the Monocytes [1, 4] of the same molecule?
A: 0.15 ± 0.01 ×10^9

Q: What about the Neutrophils [1, 4] of the same molecule?
A: 0.41 ± 0.13 ×10^9

Q: What about the Platelets [1, 4] of the same molecule?
A: 4 ± 0 ×10^9

Q: What about the complement activation ([1]; in words, summary of Table 1B) of the same molecule?
A: reduced complement activation

Q: And the “effect on the coagulation parameters” value ([1]; in words, summary of Table 1B)?
A: no detectable effect

Q: What about the TAT [1, 4] of the same molecule?
A: 30250 ± 3450
